{"source": "ChEMBL document CHEMBL1250471", "about": "“Synthesis and antimycobacterial activity of new quinoxaline-2-carboxamide 1,4-di-N-oxide derivatives” (2010)", "key": {"[1]": {"tested_on": "Mycobacterium tuberculosis", "experiment": "Antimycobacterial activity against Mycobacterium tuberculosis H37Rv ATCC 27294 microplate alamar blue assay", "format": "functional"}, "[2]": {"experiment": "Selectivity index, ratio of CC50 for african green monkey Vero cells to MIC for Mycobacterium tuberculosis H37Rv ATCC 27294", "format": "functional"}}, "data": [{"compound": "COc1ccc2c(c1)[n+]([O-])c(C(=O)NCc1ccccc1)c(-c1ccccc1)[n+]2[O-]", "values": [{"measurement": "IC90", "setting": "[1]", "value": 14.6, "unit": "µg/mL"}]}, {"compound": "O=C(NCc1ccccc1)c1c(-c2ccccc2)[n+]([O-])c2ccc(C(F)(F)F)cc2[n+]1[O-]", "values": [{"measurement": "IC90", "setting": "[1]", "value": "> 100", "unit": "µg/mL"}]}, {"compound": "Cc1ccc2c(c1)[n+]([O-])c(C(=O)NCc1ccc3c(c1)OCO3)c(C)[n+]2[O-]", "values": [{"measurement": "IC90", "setting": "[1]", "value": 13.2, "unit": "µg/mL"}]}, {"compound": "Cc1ccc2c(c1)[n+]([O-])c(C(=O)NCc1ccccc1)c(-c1ccccc1)[n+]2[O-]", "values": [{"measurement": "IC90", "setting": "[1]", "value": 13.9, "unit": "µg/mL"}]}, {"compound": "Cc1ccc(CNC(=O)c2c(C)[n+]([O-])c3ccc(C)cc3[n+]2[O-])cc1", "values": [{"measurement": "IC90", "setting": "[1]", "value": 99.9, "unit": "µg/mL"}]}, {"compound": "O=C(Nc1ccccc1)c1c(-c2ccccc2)[n+]([O-])c2cc(Cl)c(Cl)cc2[n+]1[O-]", "values": [{"measurement": "IC90", "setting": "[1]", "value": 6.63, "unit": "µg/mL"}, {"measurement": "Selectivity Index", "setting": "[2]", "value": 0.84}]}, {"compound": "Cc1c(C(=O)NCc2ccc(C(F)(F)F)cc2)[n+]([O-])c2ccccc2[n+]1[O-]", "values": [{"measurement": "IC90", "setting": "[1]", "value": 16.8, "unit": "µg/mL"}]}, {"compound": "Cc1c(C(=O)NCc2ccc3c(c2)OCO3)[n+]([O-])c2cc(Cl)ccc2[n+]1[O-]", "values": [{"measurement": "IC90", "setting": "[1]", "value": 6.99, "unit": "µg/mL"}, {"measurement": "Selectivity Index", "setting": "[2]", "value": ">5.72"}]}, {"compound": "Cc1c(C(=O)NCC(c2ccccc2)c2ccccc2)[n+]([O-])c2ccccc2[n+]1[O-]", "values": [{"measurement": "IC90", "setting": "[1]", "value": 16, "unit": "µg/mL"}]}, {"compound": "Cc1c(C(=O)NCc2ccc3c(c2)OCO3)[n+]([O-])c2ccccc2[n+]1[O-]", "values": [{"measurement": "IC90", "setting": "[1]", "value": 22.8, "unit": "µg/mL"}]}, {"compound": "Cc1ccc(CNC(=O)c2c(C)[n+]([O-])c3ccccc3[n+]2[O-])cc1", "values": [{"measurement": "IC90", "setting": "[1]", "value": 6.76, "unit": "µg/mL"}, {"measurement": "Selectivity Index", "setting": "[2]", "value": ">5.92"}]}, {"compound": "Cc1c(C(=O)NCc2ccc(Br)cc2)[n+]([O-])c2cc(Cl)c(Cl)cc2[n+]1[O-]", "values": [{"measurement": "IC90", "setting": "[1]", "value": 6.92, "unit": "µg/mL"}, {"measurement": "Selectivity Index", "setting": "[2]", "value": ">5.78"}]}, {"compound": "Cc1c(C(=O)NCc2ccc(Cl)cc2)[n+]([O-])c2cc(Cl)ccc2[n+]1[O-]", "values": [{"measurement": "IC90", "setting": "[1]", "value": 29.7, "unit": "µg/mL"}]}, {"compound": "Cc1c(C(=O)NCC(c2ccccc2)c2ccccc2)[n+]([O-])c2cc(Cl)ccc2[n+]1[O-]", "values": [{"measurement": "IC90", "setting": "[1]", "value": 60.4, "unit": "µg/mL"}]}, {"compound": "O=C(Nc1ccccc1)c1c(-c2ccccc2)[n+]([O-])c2ccc(C(F)(F)F)cc2[n+]1[O-]", "values": [{"measurement": "IC90", "setting": "[1]", "value": 19.1, "unit": "µg/mL"}]}, {"compound": "O=C(Nc1ccccc1)c1c(-c2ccccc2)[n+]([O-])c2ccccc2[n+]1[O-]", "values": [{"measurement": "IC90", "setting": "[1]", "value": 27, "unit": "µg/mL"}]}, {"compound": "Cc1ccc(CNC(=O)c2c(C)[n+]([O-])c3ccc(Cl)cc3[n+]2[O-])cc1", "values": [{"measurement": "IC90", "setting": "[1]", "value": 32, "unit": "µg/mL"}]}, {"compound": "Cc1ccc2c(c1)[n+]([O-])c(C(=O)NCc1ccc(C(F)(F)F)cc1)c(C)[n+]2[O-]", "values": [{"measurement": "IC90", "setting": "[1]", "value": "> 100", "unit": "µg/mL"}]}, {"compound": "Cc1ccc(CNC(=O)c2c(C)[n+]([O-])c3cc(Cl)c(Cl)cc3[n+]2[O-])cc1", "values": [{"measurement": "IC90", "setting": "[1]", "value": "> 100", "unit": "µg/mL"}]}, {"compound": "Cc1c(C(=O)NCc2ccc(Br)cc2)[n+]([O-])c2ccccc2[n+]1[O-]", "values": [{"measurement": "IC90", "setting": "[1]", "value": 15.6, "unit": "µg/mL"}]}, {"compound": "CO[C@H]1/C=C/O[C@@]2(C)Oc3c(C)c(O)c4c(O)c(c(/C=N/N5CCN(C)CC5)c(O)c4c3C2=O)NC(=O)/C(C)=C\\C=C\\[C@H](C)[C@H](O)[C@@H](C)[C@@H](O)[C@@H](C)[C@H](OC(C)=O)[C@@H]1C", "note": "[RIFAMPIN]", "values": [{"measurement": "IC90", "setting": "[1]", "value": 0.015, "unit": "µg/mL"}, {"measurement": "Selectivity Index", "setting": "[2]", "value": ">800"}]}, {"compound": "Cc1c(C(=O)NCc2ccc(C(F)(F)F)cc2)[n+]([O-])c2cc(Cl)c(Cl)cc2[n+]1[O-]", "values": [{"measurement": "IC90", "setting": "[1]", "value": 6.58, "unit": "µg/mL"}, {"measurement": "Selectivity Index", "setting": "[2]", "value": ">6.08"}]}, {"compound": "Cc1c(C(=O)NCc2ccc(Cl)cc2)[n+]([O-])c2cc(Cl)c(Cl)cc2[n+]1[O-]", "values": [{"measurement": "IC90", "setting": "[1]", "value": 51.9, "unit": "µg/mL"}]}, {"compound": "Cc1ccc2c(c1)[n+]([O-])c(C(=O)Nc1ccccc1)c(-c1ccccc1)[n+]2[O-]", "values": [{"measurement": "IC90", "setting": "[1]", "value": 24.6, "unit": "µg/mL"}]}, {"compound": "COc1ccc2c(c1)[n+]([O-])c(C(=O)NCc1ccc(C(F)(F)F)cc1)c(C)[n+]2[O-]", "values": [{"measurement": "IC90", "setting": "[1]", "value": "> 100", "unit": "µg/mL"}]}, {"compound": "O=C(Nc1ccccc1)c1c(-c2ccccc2)[n+]([O-])c2ccc(Cl)cc2[n+]1[O-]", "values": [{"measurement": "IC90", "setting": "[1]", "value": 6.71, "unit": "µg/mL"}, {"measurement": "Selectivity Index", "setting": "[2]", "value": 1.34}]}, {"compound": "Cc1ccc2c(c1)[n+]([O-])c(C(=O)NCC(c1ccccc1)c1ccccc1)c(C)[n+]2[O-]", "values": [{"measurement": "IC90", "setting": "[1]", "value": 16.8, "unit": "µg/mL"}]}, {"compound": "Cc1ccc2c(c1)[n+]([O-])c(C(=O)NCc1ccc(Cl)cc1)c(C)[n+]2[O-]", "values": [{"measurement": "IC90", "setting": "[1]", "value": 14.6, "unit": "µg/mL"}]}, {"compound": "O=C(NCCc1ccccc1)c1c(-c2ccccc2)[n+]([O-])c2ccc(Cl)cc2[n+]1[O-]", "values": [{"measurement": "IC90", "setting": "[1]", "value": 15.4, "unit": "µg/mL"}]}, {"compound": "O=C(Nc1ccccc1)c1c(-c2ccccc2)[n+]([O-])c2ccc(F)cc2[n+]1[O-]", "values": [{"measurement": "IC90", "setting": "[1]", "value": 17.9, "unit": "µg/mL"}]}, {"compound": "O=C(NCc1ccccc1)c1c(-c2ccccc2)[n+]([O-])c2cc(Cl)c(Cl)cc2[n+]1[O-]", "values": [{"measurement": "IC90", "setting": "[1]", "value": 25.4, "unit": "µg/mL"}]}, {"compound": "O=C(NCc1ccccc1)c1c(-c2ccccc2)[n+]([O-])c2ccc(Cl)cc2[n+]1[O-]", "values": [{"measurement": "IC90", "setting": "[1]", "value": 3.39, "unit": "µg/mL"}, {"measurement": "Selectivity Index", "setting": "[2]", "value": ">11.79"}]}, {"compound": "O=C(NCc1ccccc1)c1c(-c2ccccc2)[n+]([O-])c2ccc(F)cc2[n+]1[O-]", "values": [{"measurement": "IC90", "setting": "[1]", "value": 3.86, "unit": "µg/mL"}, {"measurement": "Selectivity Index", "setting": "[2]", "value": 4.62}]}, {"compound": "Cc1c(C(=O)NCC(c2ccccc2)c2ccccc2)[n+]([O-])c2cc(Cl)c(Cl)cc2[n+]1[O-]", "values": [{"measurement": "IC90", "setting": "[1]", "value": 66.5, "unit": "µg/mL"}]}, {"compound": "Cc1c(C(=O)NCc2ccc(C(F)(F)F)cc2)[n+]([O-])c2cc(F)ccc2[n+]1[O-]", "values": [{"measurement": "IC90", "setting": "[1]", "value": 4.48, "unit": "µg/mL"}, {"measurement": "Selectivity Index", "setting": "[2]", "value": ">8.94"}]}, {"compound": "O=C(NCCc1ccccc1)c1c(-c2ccccc2)[n+]([O-])c2ccccc2[n+]1[O-]", "values": [{"measurement": "IC90", "setting": "[1]", "value": 18.6, "unit": "µg/mL"}]}, {"compound": "COc1ccc2c(c1)[n+]([O-])c(C(=O)Nc1ccccc1)c(-c1ccccc1)[n+]2[O-]", "values": [{"measurement": "IC90", "setting": "[1]", "value": 26.8, "unit": "µg/mL"}]}, {"compound": "Cc1ccc2c(c1)[n+]([O-])c(C(=O)NCc1ccc(Br)cc1)c(C)[n+]2[O-]", "values": [{"measurement": "IC90", "setting": "[1]", "value": 78.2, "unit": "µg/mL"}]}, {"compound": "Cc1c(C(=O)NCc2ccc(C(F)(F)F)cc2)[n+]([O-])c2cc(C(F)(F)F)ccc2[n+]1[O-]", "values": [{"measurement": "IC90", "setting": "[1]", "value": 3.38, "unit": "µg/mL"}, {"measurement": "Selectivity Index", "setting": "[2]", "value": ">11.82"}]}, {"compound": "Cc1c(C(=O)NCc2ccc(Br)cc2)[n+]([O-])c2cc(Cl)ccc2[n+]1[O-]", "values": [{"measurement": "IC90", "setting": "[1]", "value": 5.33, "unit": "µg/mL"}, {"measurement": "Selectivity Index", "setting": "[2]", "value": ">7.5"}]}, {"compound": "Cc1c(C(=O)NCc2ccc(Cl)cc2)[n+]([O-])c2ccccc2[n+]1[O-]", "values": [{"measurement": "IC90", "setting": "[1]", "value": 11, "unit": "µg/mL"}]}, {"compound": "Cc1c(C(=O)NCc2ccc(C(F)(F)F)cc2)[n+]([O-])c2cc(Cl)ccc2[n+]1[O-]", "values": [{"measurement": "IC90", "setting": "[1]", "value": 6.13, "unit": "µg/mL"}, {"measurement": "Selectivity Index", "setting": "[2]", "value": ">6.52"}]}, {"compound": "Cc1c(C(=O)NCc2ccc3c(c2)OCO3)[n+]([O-])c2cc(Cl)c(Cl)cc2[n+]1[O-]", "values": [{"measurement": "IC90", "setting": "[1]", "value": 34.9, "unit": "µg/mL"}]}, {"compound": "O=C(NCc1ccccc1)c1c(-c2ccccc2)[n+]([O-])c2ccccc2[n+]1[O-]", "values": [{"measurement": "IC90", "setting": "[1]", "value": 6.71, "unit": "µg/mL"}, {"measurement": "Selectivity Index", "setting": "[2]", "value": ">5.96"}]}]}
